Data on three compounds can be found in patent US7049329B2, “Amines that inhibit a mammalian anandamide transporter, and methods of use thereof” (Sepracor Inc., priority 2002, dated 2006).

One experiment concerns mice. The experiment can be described thus: Hot plate test in mice (nociceptive reaction latency). It is filed as in vivo. To be noted: i.v., Anandamide 20 mg/kg, Compound 4 10 mg/kg, cut-off 30 seconds; for Nociceptive Reaction Latency, Mean: N 10; for Nociceptive Reaction Latency, individual mice: hot plate 56° C. As to the method:
This experiment assessed the analgesic effects of anandamide, compound 4, and a combination of anadamide and compound 4 in the hot plate test in mice.
One hundred (100) male Swiss mice ICO: OF1 (IOPS Caw) (Iffa Credo, France) weighing 17 g to 23 g were used in the study. The mice were housed in a temperature (19.5–24.5° C.) and relative humidity (45–65%) controlled room with a 12-h light/dark cycle, with ad libitum access to filtered tap-water and standard pelleted laboratory chow (U.A.R., France) throughout the study. Upon receipt at animal facilities, they were housed 20 per cage and at least a 5-day acclimatization period was observed. Animals were individually identified on their tails.
Ten groups of 10 animals each were used in this study. The individual groups were treated as set forth below. The doses used are expressed in terms of free active substance. The test and reference substances and the vehicle were administered by intravenous route (i.v) in a random order with a volume of 5 mL/kg. Anandamide and compound 4 were concomitantly administered as a mixture by intravenous route under a volume of 10 mL/kg (Groups 3, 7 and 10).
Twenty, thirty and sixty minutes after dosing, a given mouse was placed on a metallic hot plate maintained at 56±0.2° C. The nociceptive reaction latency, characterized by a licking reflex of the forepaws or by a jumping off the hot plate, was recorded. The cut-off time was set to 30 seconds. See Eddy NB, Touchberry CF, Lieberman JE. “Synthetic analgesics.
The mean results from these experiments are presented graphically in FIG. 6. The results tabulated in FIG. 6 are expressed as mean±sem. ANOVA (2 ways): time/treatment's effect as well as interaction between the two, for vehicle, anandamide and association groups. Dunnett's test: * indicates a significant difference in comparison with the vehicle-treated group for P<0.05. Dunnett's test :† indicates a significant difference in comparison with the same treated group at t−60 min for P<0.05. ANOVA (1 ways): at t−30 min for vehicle, anandamide, compound 4 and association groups. Dunnett's test: ° indicates a significant difference in comparison with the vehicle-treated group for P<0.05. Vehicle: Saline+20% DMSO; n=10 mice per groups.
(In general: Hot-plate and tail-flick tests time the reaction to a heat stimulus.)

For experiment [1], the system named is mammalian anandamide transporter. The experiment can be described thus: Anandamide uptake functional assay. It is filed as cell-based, human. To be noted: reference compound; U-937 cells, [3H]-AEA uptake; read-out: IC50 of AM-404 in this assay. As to the method: The characterization of anandamide uptake was performed with human monocytes (U-937 cells), using a 96 wells format (volume of the reaction 500 μL). Uptake of radiolabelled anandamide by U-937 cells (10^5 cells in 400 μL/well) occured during a 15 minutes incubation time at 37° C. in the presence of test compounds added in solution in 50 μL and 50 μL of [^3H]-AEA (2 nM)/AEA (98 nM).
U-937 cells and [^3H]-AEA/AEA were prepared in a Krebs buffer pH 7.4 containing 25 mM NaHCO3, 11 mM glucose, 50 μM ascorbic acid and 1% BSA. This incubation buffer is oxygenated for 5 minutes before incubation. Basal control is incubated for 15 minutes at 4° C., in absence of any test or reference compound to prevent uptake.
Following incubation, uptake was stopped by filtration through a “unifilter 96-well GFB plate” (Packard) washed with Krebs buffer containing 25 mM NaHCO3 to eliminate the free [^3H]-AEA. The radioactivity associated with the U-937 cells corresponding to the uptake was retained on the unifilter and was measured with a Topcount Microplate Scintillation Counter, (Packard) using Microscint 0 scintillation liquid (Packard).
FIGS. 3–5 depict certain compounds of the present invention and their IC50 values as determined in this assay. […]

In the next experiment the test system is AT. To be noted: background; read-out: IC50, inhibits AT; cited from earlier work.

Molecules are shown by their SMILES. pIC50: −log10 of the molar value. Several values for one entry are separate records, joined by “and”; a condition that tells them apart may be missing. Equal entries are not always repeated.

Regarding `CCCCC/C=C\C/C=C\C/C=C\C/C=C\CCCC(=O)NCCO` [Anandamide, N-(2-hydroxyethyl)arachidonamide], the entries for the “Nociceptive Reaction Latency, Mean” value in the experiment on mice (20 minutes post-administration), with mice (30 minutes post-administration) and in the experiment on mice (60 minutes post-administration) were 8.9 s, 8.1 s and 11.7 s, respectively. Further, the “Nociceptive Reaction Latency, individual mice” value with mice (20 minutes post-administration) is 10.3 s and 21.2 s and 6.3 s and 8.8 s and 4.9 s and 5.3 s and 8.1 s and 7.8 s and 5.1 s and 11.5 s; with mice (30 minutes post-administration), 8.9 s and 7.5 s and 10.7 s and 7.9 s and 5.2 s and 9.7 s and 10 s and 7.1 s and 6.5 s and 7.8 s; in the experiment on mice (60 minutes post-administration), 6.9 s and 11.1 s and 10.1 s and 9.3 s and 11.7 s and 8.9 s and 16.1 s and 13.5 s and 24.4 s and 4.6 s.
As a reminder, the pIC50 is the IC50 on a negative log10 scale, so that one unit is a factor of ten. `CCCCC/C=C\C/C=C\C/C=C\C/C=C\CCCC(=O)Nc1ccc(O)cc1` [AM-404, N-(4-hydroxyphenyl)arachidonamide]: the pIC50 in experiment [1] was 5.70; in the experiment on AT, approximately 5.70.
As to `C=CCOc1ccc(CN(CC=Cc2ccccc2)CCOC)cc1` [Compound 4, N-(4-Allyloxybenzyl)-N-(2-methoxyethyl)-N-(3-phenyl-allyl)amine], in the experiment with mice (30 minutes post-administration), the “Nociceptive Reaction Latency, Mean” value turned out to be 10.2 s; the “Nociceptive Reaction Latency, individual mice” value is 10 s and 12.8 s and 14.5 s and 4.5 s and 10.4 s and 4.2 s and 9.6 s and 13.5 s and 16.3 s and 6.1 s.
